Experimental data reported in patent publication US10782292B2, “Antibiotic susceptibility testing via plasmonic imaging and tracking” (priority 2015, dated 2020).
Entries after “also recorded” stand apart in the source; their conditions may differ.

Experiments:
E. coli O157:H7 [1] = assay: Culturing in LB medium after antibiotic treatment on the sensor chip (validation of cell death); format: cell-based
Excerpt: […] the addition of polymyxin B, Z-movement decreases from ±5 nm to ±0.5 nm, which is close to the Brownian motion of a dead bacterium. We further validated the metabolic state by culturing and elongating the tethered cell in standard Luria Broth (LB) media before adding the antibiotic.
Referring now to FIG. […] PMB is a bactericidal antibiotic which kills Gram-negative bacteria by permeabilizing the outer membrane.^60 At high concentrations, […], PMB also depolarizes the cytoplasmic membrane, causing ion-permeable pores in the cell envelope.^30 Within a few seconds after adding the antibiotic, there was a marked decrease in the Z-movement of the bacterial cell from about ±3 to about ±1 nm. We further observed that after a few minutes, the bacterial cell Z-movement reached a baseline value of ±0.5 nm. […] The decrease in bacterial cell length has been previously correlated to cell lysis and cell death after the addition of polypeptide antibiotics.^69 We validated the correlation between the decreases in nanomotion and change of the bacterial metabolic state by replacing the antibiotic-containing PBS with LB medium (lacking PMB) on the sensor chip. […] We subsequently collected a small sample volume from the above sensor chip and subjected it to culturing overnight in LB medium.
(§1) Referring now specifically to FIG. 3D, there shown are control experiment data comparing Z-movement in PBS 102 and on injections of 2% glucose 104, 1×PBS 106, and antibiotic 108. […] After subsequently eliminating glucose in the 1×PBS medium, the amplitude of the nanomotion, measured over 1 s windows for 20 s videos, decreased back to the level prior to the injection of glucose (as shown in FIG. 3E). The positive correlation between glucose injection and Z-movement strongly supports that bacterial cell nanomotion originates from metabolic activity rather than Brownian motion.

E. coli O157:H7 [2] = assay: Plasmonic imaging and tracking (PIT) of Z-movement (nanomotion) of single antibody-tethered bacterial cells; format: cell-based
[3] = tested on: UPEC E. coli strain CFT073; assay: PIT of Z-movement (nanomotion) of UPEC cells immobilized with APTES linker; format: cell-based; conditions: PMB 1 mg/mL, APTES surface, 1×PBS, FIG. 12
Experimental: We immobilized the UPEC strain on the sensor using the (3-aminopropyl)-triethoxysilane (APTES) linker, rather than using the antibody immobilization for the E. coli O157:H7 study described above. We studied the nanomotion changes as antibiotic PMB acted on bacterial cells at a bactericidal concentration of 1 mg/mL. […] These experiments indicate that the methods may be used for different bacterial strains and different antibiotics. To fully establish the present method for rapid AST in clinical settings, additional and more comprehensive tests will still be needed in the future.
An aliquot of frozen E. coli O157:H7 or E. coli CFT073 strain was thawed and used to inoculate 10 mL of LB medium. […]
All plasmonic imaging sequences were collected at 106 fps at a pixel resolution of 640×480. […] Images were recorded in either transmitted or plasmonic imaging mode for various time durations. […]
More specifically, the plasmonic image intensity was calculated by obtaining averaged intensity within a fixed area around the bacterial cell using the bare gold chip regions as reference. The Z-distance of the bacterial cell above the sensor surface was then calculated from the plasmonic image intensity (Iz) with a calibrated curve, given by Iz=I0 exp(−Δz/L), where I0 is a constant, Δz is the z displacement of a bacterial cell, and L is the decay constant. […]

E. coli O157:H7 [4] = assay: Transmitted microscope image of bacterial cell length after adding antibiotic; format: cell-based
Experimental: Referring now to FIG. 3C the effect of antibiotic polymycin B at a concentration of 500 μg/mL on Z-movement of a bacterial cell is shown. […] PMB is a bactericidal antibiotic which kills Gram-negative bacteria by permeabilizing the outer membrane.^60 At high concentrations, such as […] used in this study, PMB also depolarizes the cytoplasmic membrane, causing ion-permeable pores in the cell envelope.^30 Within a few seconds after adding the antibiotic, there was a marked decrease in the Z-movement of the bacterial cell from about ±3 to about ±1 nm. We further observed that after a few minutes, the bacterial cell Z-movement reached a baseline value of ±0.5 nm. […]
as §1, with “The positive correlation between glucose injection and Z-movement strongly supports that bacterial cell nanomotion originates from metabolic activity rather than Brownian motion.” left out
All plasmonic imaging sequences were collected at 106 fps at a pixel resolution of 640×480. […] Images were recorded in either transmitted or plasmonic imaging mode for various time durations.

UPEC strain = assay: Overnight culturing in LB medium after antibiotic treatment (validation of cell death), UPEC; format: cell-based, E. coli CFT073; conditions: after PMB 1 mg/mL
Gram-negative bacteria = conditions: literature reference 30; cited from earlier work

Compound	Overnight culturing after streptomycin (E. coli O157:H7 [1]; after streptomycin 1 mg/ml)	Change in nanomotion (Z-movement) after streptomycin (E. coli O157:H7 [2]; streptomycin 1 mg/mL, PBS supplemented with LB (0.4×LB media), FIG. 13)	Change in nanomotion (Z-movement) of UPEC cells ([3]; listed as PMB)	Change in nanomotion (Z-movement) of UPEC cells ([3]; listed as polymycin B)	Cell length in transmitted microscope image after antibiotic (E. coli O157:H7 [4]; PMB 75 µg/mL, FIG. 11)	Bacterial cell length after adding antibiotic (E. coli O157:H7 [4]; high antibiotic concentration (500 g/mL study))	Bacterial growth on overnight culturing in LB medium (E. coli O157:H7 [1]; after PMB 75 µg/mL)	Cellular growth on subsequent incubation in LB media (E. coli O157:H7 [1]; after polymyxin B 75 μg/ml)	Growth of bacterial cells after overnight incubation in LB medium (E. coli O157:H7 [1]; sample from sensor chip after PMB 500 µg/mL)	Overnight culturing in LB medium of UPEC sample (UPEC strain; listed as PMB)	Overnight culturing in LB medium of UPEC sample (UPEC strain; listed as polymycin B)	Change in nanomotion (Z-movement) at sub-bactericidal concentration (E. coli O157:H7 [2]; 0.5 μg/ml (b80 prints 0.5 g/mL), after 20 min, 1×PBS, FIG. 10, listed as PMB)	Change in nanomotion (Z-movement) at 5× bactericidal concentration (E. coli O157:H7 [2]; 100 μg/m, 1×PBS, FIG. 10, listed as PMB)	Change in nanomotion after antibiotic in glucose control experiment (E. coli O157:H7 [2]; PMB 75 µg/mL (bactericidal concentration), FIG. 3D)	Change in Z-motion of a bacterial cell after adding antibiotic (E. coli O157:H7 [2]; added at t=120 s, FIG. 3A)	Nanomotion after replacing antibiotic-containing PBS with LB medium (E. coli O157:H7 [2]; after PMB 500 µg/mL, LB lacking PMB)	Concentration at which bactericidal activity has been observed (Gram-negative bacteria)
[H]/N=C(/N)N[C@H]1[C@H](O)[C@@H](O)[C@H](O[C@@H]2O[C@@H](C)[C@](O)(C=O)[C@H]2O[C@@H]2O[C@@H](CO)[C@H](O)[C@@H](O)[C@@H]2NC)[C@@H](N/C(N)=N\[H])[C@@H]1O [streptomycin]	confirmed the death of the bacteria	decrease in nano-motion; also recorded: decrease in the nanomotion															
Polymyxin B			decrease in bacterial nanomotion	large decrease in the nano-motion	visible decrease in cell length	decreases in bacterial cell length	no bacterial growth	did not lead to cellular growth	no growth of bacterial cells	no bacterial growth	confirmed the death of the bacteria	did not observe changes in the nanomotion; also recorded: does not change the Z-movement	significant decrease in nanomotion; also recorded: large decrease in Z-movement	decrease in bacterial nanomotion	large drop in Z-motion	no further change in the bacterial nanomotion	20 g/mL
